From PubChem BioAssay (NCI)
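Exposure lasted 48 hours, with cells grown in 96-well plates and compounds tested at five concentrations. GI50 marks 50% less growth. TGI: total growth inhibition.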

How the values were obtained:
Assay in all cases: NCI anticancer screen, dose series, 48 h
CAKI-1 renal = test system: CAKI-1 renal
OVCAR-4 ovarian = test system: OVCAR-4 ovarian
HT29 colon = test system: HT29 colon
MDA-MB-435 = test system: MDA-MB-435
M14 melanoma = test system: M14 melanoma
OVCAR-8 ovarian = test system: OVCAR-8 ovarian
MCF7 breast = test system: MCF7 breast
786-0 renal = test system: 786-0 renal
MALME-3M melanoma = test system: MALME-3M melanoma
LOX IMVI melanoma = test system: LOX IMVI melanoma
EKVX NSCLC = test system: EKVX NSCLC
NCI-H460 lung = test system: NCI-H460 lung
SW-620 colon = test system: SW-620 colon
OVCAR-3 ovarian = test system: OVCAR-3 ovarian
SF-268 CNS = test system: SF-268 CNS
SNB-75 CNS = test system: SNB-75 CNS
UACC-257 melanoma = test system: UACC-257 melanoma
A498 renal = test system: A498 renal
A549 NSCLC = test system: A549 NSCLC
K-562 leukemia = test system: K-562 leukemia
SK-MEL-2 melanoma = test system: SK-MEL-2 melanoma
HCT-116 colon = test system: HCT-116 colon
HL-60(TB) leukemia = test system: HL-60(TB) leukemia
HOP-92 NSCLC = test system: HOP-92 NSCLC
CCRF-CEM leukemia = test system: CCRF-CEM leukemia
SF-295 CNS = test system: SF-295 CNS
SK-MEL-28 melanoma = test system: SK-MEL-28 melanoma
HS 578T breast = test system: HS 578T breast
SNB-19 CNS = test system: SNB-19 CNS

For `O=C1C(Cl)=C(N2CCOCC2)C(=O)c2ccccc21`, the GI50 (CAKI-1 renal) was 1.88 µM, the TGI (CAKI-1 renal) was 3.49 µM and the GI50 (OVCAR-4 ovarian) was 1.61 µM. For the same molecule, the TGI (OVCAR-4 ovarian) was 3.02 µM, the GI50 (HT29 colon) was 5.94 µM and the TGI (HT29 colon) was 21.8 µM. For the same molecule, the GI50 (MDA-MB-435) was 1.95 µM, the TGI (MDA-MB-435) was 3.72 µM and the GI50 (M14 melanoma) was 5.62 µM. For the same molecule, the TGI (M14 melanoma) was 18.7 µM, the GI50 (OVCAR-8 ovarian) was 1.6 µM and the TGI (OVCAR-8 ovarian) was 3 µM. The GI50 (MCF7 breast) was 3.49 µM, the TGI (MCF7 breast) was 17.9 µM and the GI50 (786-0 renal) was 16.6 µM. For the same molecule, the TGI (786-0 renal) was 31.2 µM, the GI50 (MALME-3M melanoma) was 2.55 µM and the TGI (MALME-3M melanoma) was 4.85 µM. The GI50 (LOX IMVI melanoma) was 3.01 µM, the TGI (LOX IMVI melanoma) was 13.6 µM and the GI50 (EKVX NSCLC) was 3.75 µM. It also gave a TGI (EKVX NSCLC) of 14.3 µM, a GI50 (NCI-H460 lung) of 20.2 µM and a TGI (NCI-H460 lung) of 42.8 µM. The GI50 (SW-620 colon) was 1.76 µM, the TGI (SW-620 colon) was 3.51 µM and the GI50 (OVCAR-3 ovarian) was 2.04 µM. The TGI (OVCAR-3 ovarian) was 3.58 µM, the GI50 (SF-268 CNS) was 4.88 µM and the TGI (SF-268 CNS) was 16.8 µM. The GI50 (SNB-75 CNS) was 14.2 µM, the TGI (SNB-75 CNS) was 27.8 µM and the GI50 (UACC-257 melanoma) was 1.62 µM. It also gave a TGI (UACC-257 melanoma) of 3.03 µM, a GI50 (A498 renal) of 11.2 µM and a TGI (A498 renal) of 24.3 µM. The GI50 (A549 NSCLC) was 17.8 µM, the TGI (A549 NSCLC) was 32.3 µM and the GI50 (K-562 leukemia) was 2.15 µM. It also gave a TGI (K-562 leukemia) of 7.8 µM, a GI50 (SK-MEL-2 melanoma) of 3.82 µM and a TGI (SK-MEL-2 melanoma) of 11.6 µM. For the same molecule, the GI50 (HCT-116 colon) was 1.86 µM, the TGI (HCT-116 colon) was 3.37 µM and the GI50 (HL-60(TB) leukemia) was 2.33 µM. For the same molecule, the TGI (HL-60(TB) leukemia) was 5.32 µM, the GI50 (HOP-92 NSCLC) was 1.52 µM and the TGI (HOP-92 NSCLC) was 3 µM. For the same molecule, the GI50 (CCRF-CEM leukemia) was 2.53 µM, the TGI (CCRF-CEM leukemia) was 6.77 µM and the GI50 (SF-295 CNS) was 19.2 µM. For the same molecule, the TGI (SF-295 CNS) was 36.7 µM, the GI50 (SK-MEL-28 melanoma) was 2.69 µM and the TGI (SK-MEL-28 melanoma) was 6.32 µM. For the same molecule, the GI50 (HS 578T breast) was 20.8 µM, the TGI (HS 578T breast) was 69.6 µM and the GI50 (SNB-19 CNS) was 16.1 µM.
